Data taken from patent US7412284B2, “Apparatus for electroporation mediated delivery for drugs and genes” (Genetronics, Inc., priority 1997, dated 2008).
Entries after “also recorded” stand apart in the source; their conditions may differ. Marks after values point to notes of the source that are not given here.

System: poorly differentiated human pancreatic tumor (Panc-3)
Test: EPT with bleomycin of Panc-3 tumors xenografted in nude mice
Type: in vivo, nude mouse
Details: for Complete Regression (100%), number of mice / Death, number of mice / No Response, number of mice / Partial Regression (≧80%), number of mice / Tumor regrowth, number of mice: of 25 mice treated; for Tumor volume (mm^3) T1: treated mouse T1; for Tumor volume (mm^3) T2: treated mouse T2
Method: The single treatment procedure involved injection of bleomycin (0.5 units in 0.15 ml saline) intratumorally, using fanning, as described herein followed by application of six square wave electrical pulses, ten minutes later, using needle array electrodes as described in the present application, arranged along the circumference of a circle 1 cm in diameter. Needle array of variable diameters (e.g., 0.5 cm, 0.75 cm and 1.5 cm can also be used to accommodate tumors of various sizes. Stoppers of various heights can be inserted at the center of the array to make the penetration depth of the needles into the tumor variable. A built-in mechanism allowed switching of electrodes for maximum coverage of the tumor by the pulsed field. The electrical parameters were: 780 V/cm center field strength and 6×99 μs pulses spaced at 1 sec interval.
The tumor cell line Panc-3, a poorly differentiated adenocarcinoma cell line of the pancreas, was supplied by AntiCancer, Inc., San Diego. For EPT experiments, tissue taken from the stock mice, where the tumor line was maintained, was thawed and cut into very small pieces about 1 mm each, and 8-10 pieces were surgically xenografted in a subcutaneous sac made in left flank of nude mice, and then closed with 6.0 surgical suture. […] The tumor dimensions were measured and the tumor volume calculated using the formula: (II/6)×a×b×c where a, b, and c a are, respectively, the length, width and thickness of the tumor. 0.5 units Bleomycin (Sigma Chemicals) was dissolved in 0.15 ml of 0.9% NaCl and was injected in each mice intratumorally by fanning for both the control (D+E−) and the treated (D+E+) groups. Ten minutes after the injection, each mouse in the D+E+ group was pulsed from a BTX T820 square wave electroporator with a set of needle array electrodes as described in the present invention. Electrical parameters used were as follows: field strength 1300 V/cm, 6 pulses of 99 μs each, at 1 sec interval.
The mice were monitored every day for mortality and any signs of a diseased state were noted. The tumor dimensions were measured at regular intervals and tumor growth regression/progression monitored.

bleomycin
treated mice with no response (2/25): 8%
treated mice that died (20 days after treatment, 1/25): 4%
treated mice with partial (>80%) regression (28 days following treatment, 5/25): 20%
treated mice with complete tumor regression (28 days following treatment, 17/25): 68%
mice with tumor regrowth (35 days after treatment, at a much slower rate): 8%
histology of tumor samples (D+E+ group, 35 days after the treatment): necrotic tumor cell ghosts; also recorded: severe necrosis of the tumor region
histology of samples from tumor site (after 120 days): complete absence of tumor cells
cases with no palpable tumor (after 120 days of the treatment, 16/25): 64%
necrosis and edema at the treatment site (bleomycin 0.5 units intratumoral + pulses): severe necrosis and edema in nearly all the mice
tumor volume (control group D+E− (drug, no pulsing)): increased dramatically
Complete Regression (100%), number of mice (28 days after treatment): 17
Death, number of mice (28 days after treatment): 1
No Response, number of mice (28 days after treatment): 2
Partial Regression (≧80%), number of mice (28 days after treatment): 5
Complete Regression (100%), number of mice (35 days after treatment): 16
No Response, number of mice (35 days after treatment): 2
Partial Regression (≧80%), number of mice (35 days after treatment): 3
Complete Regression (100%), number of mice (57 days after treatment): 16
Partial Regression (≧80%), number of mice (57 days after treatment): 3
Tumor regrowth, number of mice (57 days after treatment): 2
No Response, number of mice (57 days after treatment, footnote a: mice sacrificed due to increased tumor burden): 1^a
Complete Regression (100%), number of mice (84 days after treatment): 16
No Response, number of mice (84 days after treatment): 1
Partial Regression (≧80%), number of mice (84 days after treatment): 3
Death, number of mice (84 days after treatment, 1 died after treatment, 1 with no palpable tumor died after 64 days): 2^b
Complete Regression (100%), number of mice (94 days after treatment): 16
No Response, number of mice (94 days after treatment): 1
Partial Regression (≧80%), number of mice (94 days after treatment): 3
Tumor regrowth, number of mice (94 days after treatment, footnote d: secondary metastatic tumor): 1^d
Complete Regression (100%), number of mice (120 days after treatment): 16
Partial Regression (≧80%), number of mice (120 days after treatment, footnote e: fibrous tissue): 3^e
time monitored to be without tumors (representative animals (2/17), then euthanized): 243 days
tumor volume (treated group D+E+ (drug + electrical field)): substantial reduction in the tumor volume
detectable tumor (treated mice, after approximately 24 days): essentially no detectable tumor
Tumor volume (mm^3) T1 (0 days after treatment): 123.110 mm^3
Tumor volume (mm^3) T1 (1 day after treatment): 210.950 mm^3
Tumor volume (mm^3) T1 (8 days after treatment): 104.550 mm^3
Tumor volume (mm^3) T1 (15 days after treatment): 113.210 mm^3
Tumor volume (mm^3) T1 (18 days after treatment): 161.730 mm^3
Tumor volume (mm^3) T1 (24 days after treatment): 41.560 mm^3
Tumor volume (mm^3) T1 (28 days after treatment): 0 mm^3
Tumor volume (mm^3) T1 (35 days after treatment): 0 mm^3
Tumor volume (mm^3) T1 (38 days after treatment): 0 mm^3
Tumor volume (mm^3) T1 (43 days after treatment): 0 mm^3
Tumor volume (mm^3) T2 (0 days after treatment): 178.370 mm^3
Tumor volume (mm^3) T2 (1 day after treatment): 252.720 mm^3
Tumor volume (mm^3) T2 (8 days after treatment): 211.110 mm^3
Tumor volume (mm^3) T2 (15 days after treatment): 226.966 mm^3
Tumor volume (mm^3) T2 (18 days after treatment): 246.910 mm^3
Tumor volume (mm^3) T2 (24 days after treatment): 47.223 mm^3
Tumor volume (mm^3) T2 (28 days after treatment): 0 mm^3
Tumor volume (mm^3) T2 (35 days after treatment): 0 mm^3
Tumor volume (mm^3) T2 (38 days after treatment): 0 mm^3
Tumor volume (mm^3) T2 (43 days after treatment): 0 mm^3
